≈ marks a conversion by molar mass, not a printed value.
Test system: up to 32 different microorganisms
Assay: in vitro antibacterial activity (MIC), agar dilution on Brain Heart Infusion (BHI) agar with Steers replicator
Assay type: cell-based
Conditions: unit assumed
Summary of the method: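 Up to 32 strains were replicator-inoculated (1:100, or 1:10 for Micrococcus and Streptococcus) onto BHI agar plates holding serial compound dilutions and kept 20-24 h at 35-37° C. Plates were read visually against drug-free growth controls, with erythromycin A run alongside; MIC was the lowest concentration giving no growth, slight haze or sparse colonies.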

Compound `CCC1OC(=O)C(C)C(=O)C(C)C(OC2OC(C)CC(N(C)C)C2O)C(C)(OCC=Cc2cnc3c([N+](=O)[O-])cccc3c2)CC(C)C(=O)C(C)C2NC(=O)OC12C` (stereo not drawn) [Example 211, R is —CH2CH═CH-(8-nitro-3-quinolyl)] has an MIC (organism code AA) of 0.05 µg/mL (≈ 0.0617 µM), an MIC (organism code BB) of 0.05 µg/mL (≈ 0.0617 µM) and an MIC (organism code CC) greater than 100 µg/mL. For the same compound, the MIC (organism code DD) was 0.1 µg/mL (≈ 0.123 µM), the MIC (organism code EE) was 0.1 µg/mL (≈ 0.123 µM) and the MIC (organism code FF) was 0.1 µg/mL (≈ 0.123 µM). For the same compound, the MIC (organism code GG) was greater than 100 µg/mL, the MIC (organism code HH) was 0.05 µg/mL (≈ 0.0617 µM) and the MIC (organism code II) was 0.01 µg/mL (≈ 0.0123 µM). For the same compound, the MIC (organism code JJ) was 0.01 µg/mL (≈ 0.0123 µM), the MIC (organism code KK) was 0.01 µg/mL (≈ 0.0123 µM) and the MIC (organism code LL) was 0.01 µg/mL (≈ 0.0123 µM). For the same compound, the MIC (organism code MM) was 3.1 µg/mL (≈ 3.82 µM), the MIC (organism code NN) was 0.1 µg/mL (≈ 0.123 µM) and the MIC (organism code OO) was 0.01 µg/mL (≈ 0.0123 µM). It also gave an MIC (organism code PP) of 0.1 µg/mL (≈ 0.123 µM), an MIC (organism code QQ) of 25 µg/mL (≈ 30.8 µM) and an MIC (organism code RR) of 0.2 µg/mL (≈ 0.247 µM). The MIC (organism code SS) was 50 µg/mL (≈ 61.7 µM), the MIC (organism code TT) was greater than 100 µg/mL and the MIC (organism code UU) was 0.39 µg/mL (≈ 0.481 µM). It also gave an MIC (organism code VV) of 0.05 µg/mL (≈ 0.0617 µM), an MIC (organism code WW) of 2 µg/mL (≈ 2.47 µM) and an MIC (organism code XX) of no more than 0.004 µg/mL. The MIC (organism code YY) was no more than 0.004 µg/mL, the MIC (organism code ZZ) was 16 µg/mL (≈ 19.7 µM) and the MIC (organism code ZZA) was 0.25 µg/mL (≈ 0.308 µM).
Compound `CC[C@H]1OC(=O)[C@H](C)C(=O)[C@H](C)[C@@H](O[C@@H]2O[C@H](C)C[C@H](N(C)C)[C@H]2O)[C@@](C)(OCc2ccc3ccccc3c2)C[C@@H](C)C(=O)[C@H](C)[C@@H](O)[C@]1(C)O` [Example 173] has an MIC (Candida albicans CCH 442 (code TT)) of 100 µg/mL (≈ 140 µM), an MIC (Enterococcus faecism ATCC 8043 (code II)) of 1.56 µg/mL (≈ 2.19 µM) and an MIC (Escherichia coli DC-2 (code SS)) greater than 100 µg/mL. The MIC (Escherichia coli JUHL (code QQ)) was greater than 100 µg/mL, the MIC (Escherichia coli SS (code RR)) was 50 µg/mL (≈ 70 µM) and the MIC (Haemophilis influenzae DILL AMP R (code WW)) was 128 µg/mL (≈ 179 µM). The MIC (Micrococcus luteus ATCC 4698 (code PP)) was 3.1 µg/mL (≈ 4.34 µM), the MIC (Micrococcus luteus ATCC 9341 (code OO)) was 0.78 µg/mL (≈ 1.09 µM) and the MIC (Mycobacterium smegmatis ATCC 114 (code UU)) was 3.1 µg/mL (≈ 4.34 µM). For the same compound, the MIC (Nocardia Asteroides ATCC9970 (code VV)) was 6.2 µg/mL (≈ 8.68 µM), the MIC (Staphylococcus aureus 1775 (code GG)) was 100 µg/mL (≈ 140 µM) and the MIC (Staphylococcus aureus A5177 (code BB)) was 50 µg/mL (≈ 70 µM). For the same compound, the MIC (Staphylococcus aureus A-5278 (code CC)) was 100 µg/mL (≈ 140 µM), the MIC (Staphylococcus aureus ATCC 6538P (code AA)) was 12.5 µg/mL (≈ 17.5 µM) and the MIC (Staphylococcus aureus CMX 553 (code FF)) was 12.5 µg/mL (≈ 17.5 µM). For the same compound, the MIC (Staphylococcus aureus CMX 642A (code DD)) was 12.5 µg/mL (≈ 17.5 µM), the MIC (Staphylococcus aureus NCTC10649M (code EE)) was 12.5 µg/mL (≈ 17.5 µM) and the MIC (Staphylococcus epidermidis 3519 (code HH)) was 12.5 µg/mL (≈ 17.5 µM). The MIC (Streptococcus Pneumonia 5649 (code ZZA)) was 4 µg/mL (≈ 5.6 µM), the MIC (Streptococcus Pneumonia 5979 (code ZZ)) was 32 µg/mL (≈ 44.8 µM) and the MIC (Streptococcus Pneumonia ATCC6303 (code XX)) was 2 µg/mL (≈ 2.8 µM). The MIC (Streptococcus Pneumonia GYR 1171 (code YY)) was 2 µg/mL (≈ 2.8 µM), the MIC (Streptococcus agalactiae CMX 508 (code KK)) was 0.78 µg/mL (≈ 1.09 µM) and the MIC (Streptococcus bovis A-5169 (code JJ)) was 0.78 µg/mL (≈ 1.09 µM). The MIC (Streptococcus pyogenes 930 (code MM)) was 50 µg/mL (≈ 70 µM), the MIC (Streptococcus pyogenes EES61 (code LL)) was 0.78 µg/mL (≈ 1.09 µM) and the MIC (Streptococcus pyogenes PIU 2548 (code NN)) was 3.1 µg/mL (≈ 4.34 µM).
`CC[C@H]1OC(=O)[C@H](C)C(=O)[C@H](C)[C@@H](O[C@@H]2O[C@H](C)C[C@H](N(C)C)[C@H]2O)[C@@](C)(OCC=NOCc2cnc3ccccc3c2)C[C@@H](C)C(=O)[C@H](C)[C@H]2NC(=O)O[C@@]21C` [Example 233, Compound of Formula (IX): L is CO, T is NH, R is —CH2CH═NOCH2(3-quinolyl)] was tested, and the MIC (organism code AA) was 0.1 µg/mL, the MIC (organism code BB) was 0.1 µg/mL and the MIC (organism code CC) was greater than 100 µg/mL. For the same compound, the MIC (organism code DD) was 0.2 µg/mL, the MIC (organism code EE) was 0.2 µg/mL and the MIC (organism code FF) was 0.1 µg/mL. For the same compound, the MIC (organism code GG) was greater than 100 µg/mL, the MIC (organism code HH) was 0.2 µg/mL and the MIC (organism code II) was 0.05 µg/mL. It also gave an MIC (organism code JJ) of 0.02 µg/mL, an MIC (organism code KK) of 0.02 µg/mL and an MIC (organism code LL) of 0.02 µg/mL. For the same compound, the MIC (organism code MM) was 100 µg/mL, the MIC (organism code NN) was 0.1 µg/mL and the MIC (organism code OO) was 0.02 µg/mL. The MIC (organism code PP) was 0.3 µg/mL, the MIC (organism code QQ) was 50 µg/mL and the MIC (organism code RR) was 0.39 µg/mL. It also gave an MIC (organism code SS) of 50 µg/mL, an MIC (organism code TT) greater than 100 µg/mL and an MIC (organism code UU) of 0.78 µg/mL. It also gave an MIC (organism code VV) of 0.05 µg/mL, an MIC (organism code WW) of 2 µg/mL and an MIC (organism code XX) of 0.03 µg/mL. It also gave an MIC (organism code YY) of 0.03 µg/mL, an MIC (organism code ZZ) of 64 µg/mL and an MIC (organism code ZZA) of 0.25 µg/mL.
For `CC[C@H]1OC(=O)[C@H](C)C(=O)[C@H](C)[C@@H](O[C@@H]2O[C@H](C)C[C@H](N(C)C)[C@H]2O)[C@@](C)(OCCNCc2cnc3ccccc3c2)C[C@@H](C)C(=O)[C@H](C)[C@H]2NC(=O)O[C@@]21C` [Example 226, Compound of Formula (IX): L is CO, T is NH, R is —CH2CH2NHCH2(3-quinolyl)], the MIC (organism code AA) was 0.1 µg/mL, the MIC (organism code BB) was 0.1 µg/mL and the MIC (organism code CC) was greater than 100 µg/mL. The MIC (organism code DD) was 0.1 µg/mL, the MIC (organism code EE) was 0.1 µg/mL and the MIC (organism code FF) was 0.1 µg/mL. The MIC (organism code GG) was greater than 100 µg/mL, the MIC (organism code HH) was 0.1 µg/mL and the MIC (organism code II) was 0.05 µg/mL. It also gave an MIC (organism code JJ) of 0.01 µg/mL, an MIC (organism code KK) of 0.02 µg/mL and an MIC (organism code LL) of 0.01 µg/mL. The MIC (organism code MM) was 6.2 µg/mL, the MIC (organism code NN) was 0.39 µg/mL and the MIC (organism code OO) was 0.02 µg/mL. It also gave an MIC (organism code PP) of 0.1 µg/mL, an MIC (organism code QQ) of 6.2 µg/mL and an MIC (organism code RR) of 0.2 µg/mL. It also gave an MIC (organism code SS) of 12.5 µg/mL, an MIC (organism code TT) greater than 100 µg/mL and an MIC (organism code UU) of 9.78 µg/mL. For the same compound, the MIC (organism code VV) was 0.05 µg/mL, the MIC (organism code WW) was 2 µg/mL and the MIC (organism code XX) was 0.03 µg/mL. The MIC (organism code YY) was 0.03 µg/mL, the MIC (organism code ZZ) was greater than 128 µg/mL and the MIC (organism code ZZA) was 2 µg/mL.

— USRE39591E1, “6-O-substituted ketolides having antibacterial activity” (Abbott Laboratories, priority 1996, dated 2007)
